Source: article PMC12884720, “Gabpα‐Pparγ Complex Determines Glycolytic Capacity and Lactic Acid Homeostasis in Brown Fat” (Advanced Science, 2025)
Residues, ends and D or L forms follow the SMILES beside them. *: point of attachment. FITC = O=C1OC2(c3ccc(O)cc3Oc3cc(O)ccc32)c2ccc(NC(=S)*)cc21

Legend:
[1] = system: Gabpα‐Pparγ complex; assay: SPR competitive binding assay, GPCBi on Gabpα and Pparγ interaction; conditions: equal concentration of Gabpα and different concentrations of GPCBi over immobilized Pparγ (Figure 4b)
Experimental: SPR analysis was performed using a Biacore T200 system (Cytiva) equipped with a Series S Sensor Chip CM5. Briefly, the ligand Pparγ protein was immobilized to the CM5 Chip via covalent bonds to the amino acid residues in immobilization buffer. Subsequently, different concentrations of Gabpα were diluted in the analyte buffer and were injected into the flowing channel to allow interaction between Pparγ and Gabpα. For a competitive binding assay, an equal concentration of Gabpα and different concentrations of GPCBi were injected into the flowing channel to examine the effect of the interaction between Pparγ and Gabpα. The interacting phase included 120 s of the association phase and 200 s of the dissociation phase. The data were analyzed in a Biacore T200 Evaluation Software (Cytiva).

[2] = system: differentiated iBAT‐SVF cells; assay: Lactate levels in differentiated iBAT-SVF cells; format: cell-based, C57BL/6 mice; conditions: GPCBi 5 µM
Experimental: Interscapular BAT‐SVF cells were obtained from eight‐week‐old male C57BL/6 mice. Briefly, BAT was excised, washed in PBS, minced, and digested at 37 °C for 40 min in Hanks solution containing type II collagenase (Sigma, Cat# C‐6885) and 4% bovine serum albumin (BSA). The tissue homogenates were filtered through a 70 µm cell strainer and centrifuged at 1000 rpm for 5 min. The cell pellet was resuspended in DMEM supplemented with 10% FBS (Sigma–Aldrich) and 1% penicillin/streptomycin (P/S) at 37 °C with 5% CO2. The next day, BAT‐SVF cells were immortalized with the SV40 large T antigen according to a published protocol.^[ [32] ^] For iBAT‐SVF cell differentiation, confluent SVF cells were induced to differentiate with medium containing 0.5 mM isobutylmethylxanthine (Sigma, Cat# I‐5879), 125 µM indomethacin (Sigma, Cat# I‐7378), 2 µg mL^−1 dexamethasone (Sigma, Cat# D‐1756), 5 µg mL^−1 insulin (Solarbio, Cat# I‐8040), 1 nM triiodo‐L‐thyronine (Sigma, Cat# T‐2877), and 1 µM rosiglitazone (Cayman, Cat# 71740‐100). After 48 h, the induction medium was replaced with a maintenance cocktail (5 µg mL^−1 insulin, 1 nM triiodo‐L‐thyronine, and 1 µM rosiglitazone) until 6 to 8 days after the induction of differentiation.
Brown fat was homogenized with lysis buffer, ultrasonographically treated on ice at 300 W (on for 3 s, off for 7 s) for 2 min, and then centrifuged at 4 °C at 12 000 × g for 10 min. […] All protocols were followed in accordance with the manufacturer's guidelines.

[3] = system: BAT from wild‐type mice; assay: Gene expression (mRNA, protein) in BAT of treated mice; format: in vivo, wild‐type C57BL/6J mice
Experimental: Reverse transcription of cDNA was completed via the use of 1 µg of RNA with HiScript II Q RT SuperMix for real‐time quantitative PCR (qPCR) (Vazyme Biotech, Nanjing, China, Cat# R222) according to the provided protocols. qPCR was performed with a real‐time PCR system on a QuantStudio1 (Applied Biosystems) using Taq Pro Universal SYBR qPCR Master Mix (Vazyme Biotech., Nanjing, China, Cat# Q712‐02). Relative transcript levels were calculated via the comparative C T method; 36b4 was used as the internal control for cells, whereas Hprt was used as the internal control for tissues. The primer sequences are listed in Table S1 (Supporting Information). The mRNAs from the BAT of control and Gabpα ^Ucp1 KO mice were extracted and subjected to commercial RNA‐seq (BGI Genomics Co., Ltd.) for further DEG and KEGG pathway enrichment analysis. In detail, RNA quality was examined with Fragment (Agilent). High‐quality RNA (RIN > 8.0) was used to library construction. RNA‐seq was performed at BGI Genomics (China) using the Illumina NovaSeq 6000 platform. Clean reads were aligned to the mouse reference genome (GRCm39) using Bowtie2, and transcript quantification was performed with RSEM. […] The RNA‐seq data generated in this study have been deposited in the National Center for Biotechnology Information Sequence Read Archive database under accession code PRJNA1358056.
Cells and tissues were lysed in RIPA lysis buffer (Beyotime, Shanghai, China, Cat# P0013B) containing a protease inhibitor cocktail (MedChem Express, NJ, USA, Cat# HY‐K0010) according to the manufacturer's protocol. Equal amounts of protein were separated on SDS‒PAGE gels and transferred to PVDF membranes (Millipore). The PVDF membranes were blocked in 5% skim milk for 1 h at room temperature and then incubated with primary antibody overnight at 4 °C. The membranes were washed three times with TBST and then incubated with HRP‐conjugated secondary antibodies for 1 h at room temperature. After washing three times, the Western blots were imaged via an enhanced chemiluminescence system.

[4] = system: wild‐type mice; assay: Fasting blood glucose; format: in vivo, wild‐type C57BL/6J mice; conditions: GPCBi 5.5 mg kg^−1 orthotopically into BAT; n = 5 (Figure S4h)
Experimental: (§1) The mouse experiments were approved by the Institutional Animal Care and Use Committee of the Institute of Model Animals of Tongji Hospital, Huazhong University of Science and Technology, and were performed in compliance with all relevant ethical regulations (approval number: TJH‐202110044). Unless otherwise noted, the mice were housed in a pathogen‐free and climate‐controlled environment (22–25 °C, 40‐60% humidity) and were given free access to food and water on a 12 h light/dark cycle. Wild‐type C57BL/6J mice were obtained from Beijing Huafukang Bioscience Co., Ltd. (Beijing, China). Gabpa ^flox/flox , Adipoq^Cre , and Ucp1^Cre mice were purchased from Cyagen Biosciences, Inc. (Guangzhou, China). For GPCBi treatment, wild‐type mice were orthotopically injected GPCBi (FITC‐[…]; 5.5 mg kg^−1) or scramble peptide (FITC‐[…]; 5.5 mg kg^−1) into the BAT at room temperature for one week. […] For cold exposure, the mice were caged individually and exposed to a temperature of 10 or 4 °C. The mice were euthanized by CO2 inhalation. […] Body weight was measured every week, and tissue weights were measured at the time of euthanasia.

[5] = system: wild‐type mice; assay: Lactate levels in BAT and serum; format: in vivo, wild‐type C57BL/6J mice; conditions: GPCBi 5.5 mg kg^−1 in BAT, 23 °C for 7 days then 10 °C for 2 days
Experimental: as §1, with “euthanasia. […]” for “euthanasia.”

CC[C@H](C)[C@H](NC(=O)[C@H](CCCNC(=N)N)NC(=O)[C@H](CS)NC(=O)[C@H](CC(N)=O)NC(=O)[C@H](CC(C)C)NC(=O)[C@H](CC(=O)O)NC(=O)[C@H](CS)NC(=O)[C@H](CCCNC(=N)N)NC(=O)[C@H](CC(=O)O)NC(=O)[C@H](Cc1ccc(O)cc1)NC(=O)[C@@H](NC(=O)[C@H](CC(C)C)NC(=O)[C@H](CCCCN)NC(=O)[C@H](CC(C)C)NC(=O)[C@H](CCCNC(=N)N)NC(=O)[C@@H](NC(=O)[C@@H](NC(=O)[C@H](CCCNC(=N)N)NC(=O)[C@H](CCCNC(=N)N)NC(=O)[C@H](CCCNC(=N)N)NC(=O)[C@H](CCCNC(=N)N)NC(=O)[C@H](CCCNC(=N)N)NC(=O)[C@H](CCC(N)=O)NC(=O)[C@H](CCCNC(=N)N)NC(=O)[C@H](CCCNC(=N)N)NC(=O)[C@H](CCCCN)NC(=O)[C@H](CCCCN)NC(=O)[C@H](CCCNC(=N)N)NC(=O)CNC(=O)[C@H](Cc1ccc(O)cc1)NC(=S)Nc1ccc2c(c1)C(=O)OC21c2ccc(O)cc2Oc2cc(O)ccc21)[C@@H](C)O)[C@@H](C)CC)[C@@H](C)CC)C(=O)N[C@@H](Cc1c[nH]cn1)C(=O)N[C@@H](CCCCN)C(=O)N[C@@H](CCCCN)C(=O)N[C@@H](CO)C(=O)N[C@@H](CCCNC(=N)N)C(=O)N[C@@H](CC(N)=O)C(=O)N[C@@H](CCCCN)C(=O)O [GPCBi] ({FITC}-YGRKKRRQRRRRRTIRLKLIYDRCDLNCRIHKKSRNK-OH; N-terminus and C-terminus assumed)
effect on Gabpα affinity toward Pparγ [1]: dose‐dependently attenuated this interaction | intracellular lactate levels in brown adipocytes ([2]; first 2 days of adipogenic differentiation (Figure 5l)): decreased | lactate level in GPCBi‐treated brown adipocytes ([2]; first 2 days of adipogenic differentiation, versus scramble peptide, without Enoblock (Figure 5o)): reduced | Ldh and Ucp1 expression in BAT ([3]; GPCBi 5.5 mg kg^−1 in BAT, 23 °C for 7 days then 10 °C for 2 days, mRNA n = 4 (Figure 5e,f)): effectively downregulated | gene expressions of Eno1, Pkm2, and Ucp1 in BAT ([3]; GPCBi 5.5 mg kg^−1 orthotopically into BAT, 7 days, control n = 3, GPCBi n = 4 (Figure 4l,m)): decreased | regulatory gene expression of the futile lipid cycle, BAT ([3]; GPCBi in BAT, 23 °C for 7 days to 10 °C for 2 days, control n = 4, GPCBi n = 3 (Figure S5a)): substantially impaired | fasting blood glucose levels [4]: markedly increased | production of lactate in brown fat ([5]; n = 3 (Figure 5c)): substantially suppressed | lactate in circulation (serum) ([5]; n = 3 (Figure 5d)): substantially suppressed
